5 molecules from patent publication US12122816B2, “Long acting peptide tyrosine tyrosine (PYY) analogs and methods of use” (Intarcia Therapeutics, Inc., priority 2020, dated 2024) can be followed below.

Common to all, as to test: NPY receptor functional assay (cAMP, HEK-CNG cells, ACTOne membrane potential dye)
Format in all cases: cell-based

Experiment [1] deals with human Y4 receptor (Homo sapiens, UniProt P50391). As to conditions: standard PP, species (human or rat) not given. The source says:
(§1) The NPY family of G-protein coupled receptors include Y1, Y2, Y4, and Y5 in humans and rats. […] Following agonist binding, the receptor-G protein complex activates a downstream intracellular signaling cascade which leads to inhibition of adenylate cyclase and a reduction in intracellular cAMP levels.
(§2) HEK-CNG cells stably expressing the human or rat Y1, Y2, Y4 or Y5 receptors (Codex Biosolutions) were used to characterize the functional potency of peptide agonists using the ActOne™ membrane potential dye kit (Codex Biosolutions). In addition to each NPY receptor, each cell line encodes a proprietary exogenous Cyclic Nucleotide-Gated (CNG) channel (Codex Biosolutions). The channel is activated by elevated intracellular levels of cAMP, resulting in ion flux and cell membrane depolarization which can be detected with a calcium sensitive dye or fluorescent membrane potential (MP) dye. Cells were carried in growth media containing 90% DMEM, 10% FBS, 250 mcg/mL G418 and 1 mcg/mL puromycin for no more than 15 passages.
(§3) Prior to testing, cells were counted and dispensed at 14,000 cells per well (Y1, Y4 and Y5) or 28,000 cells per well (Y2) into black 384 well Poly-D-Lysine plates at 20 mcL per well. Covered plates were then incubated at room temperature for 30 minutes followed by an overnight incubation at 37° C. in 5% C02. The following day, media was removed and wells were washed once with 40 mcL Dulbecco's phosphate buffered saline. […] Ten microliters of experimental peptide or peptide standard was added in triplicate to wells and incubated for 50 minutes at room temperature in the dark. Following this incubation step, plates were read again as before (final read).
(§4) NPY receptor activation, leading to a reduction in intracellular cAMP levels, is detected as a decrease in isoproteranol induced fluorescent signal. Peptide standard and experimental values were initially transformed in excel using the formula: final read/initial read. Transformed values were then normalized to receptor specific standard values (1×10−13 M minimum and 1×10−7 M maximum) using the formula: (test value−standard minavg)/(standard maxavg−standard minavg)*100. […] Normalized data was analyzed from triplicate tests and used to estimate the EC50 for each test peptide on each receptor. Data was fit in GraphPad Prism software (v8.2.1) using a 3-parameter logistic curve model: Y=Bottom+(Top−Bottom)/(1+10^((LogEC50−X))). EC50 values were converted to pEC50 values using the formula: pEC50=−Log(EC50).

Experiment [2] has as its target T1, human Y2 receptor (Homo sapiens, UniProt P49146).
T1 sequence (P49146 1-381): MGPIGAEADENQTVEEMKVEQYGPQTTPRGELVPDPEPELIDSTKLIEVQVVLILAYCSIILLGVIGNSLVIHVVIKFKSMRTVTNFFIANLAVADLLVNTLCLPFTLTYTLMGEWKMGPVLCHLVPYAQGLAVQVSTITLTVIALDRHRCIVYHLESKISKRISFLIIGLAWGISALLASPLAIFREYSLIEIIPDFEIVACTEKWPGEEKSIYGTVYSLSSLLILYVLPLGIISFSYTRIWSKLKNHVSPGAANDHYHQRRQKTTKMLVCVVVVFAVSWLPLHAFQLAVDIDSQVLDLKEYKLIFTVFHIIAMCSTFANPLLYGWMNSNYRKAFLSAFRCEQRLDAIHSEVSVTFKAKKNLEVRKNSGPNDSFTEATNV
The following applies: NPY2R pEC50, HEK-CNG cells; standard PYY(3-36); species (human or rat) not given.
Description: as §1, §2, §3, §4

The target of experiment [3] is T2, human Y5 receptor (Homo sapiens, UniProt Q15761).
T2 sequence (Q15761 1-445): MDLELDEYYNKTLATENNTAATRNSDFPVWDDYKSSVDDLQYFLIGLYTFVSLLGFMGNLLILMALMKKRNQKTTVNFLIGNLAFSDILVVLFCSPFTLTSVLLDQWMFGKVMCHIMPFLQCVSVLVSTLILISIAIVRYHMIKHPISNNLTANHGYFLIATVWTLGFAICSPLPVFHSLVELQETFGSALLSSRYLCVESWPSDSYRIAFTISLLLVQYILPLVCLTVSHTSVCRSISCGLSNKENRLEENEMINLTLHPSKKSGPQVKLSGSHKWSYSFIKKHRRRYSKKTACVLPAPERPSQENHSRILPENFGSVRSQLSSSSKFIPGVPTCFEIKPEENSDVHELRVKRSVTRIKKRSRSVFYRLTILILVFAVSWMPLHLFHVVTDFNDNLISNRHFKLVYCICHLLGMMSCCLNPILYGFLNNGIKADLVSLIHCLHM
As to conditions: NPY5R pEC50, HEK-CNG cells; standard NPY; species (human or rat) not given.
Description: as §1, §2, §3, §4

Starred links: 1 amine or outer side, 2 acyl side, 3 side chain; linkers in the order of their positions; H or OH if unused. Non-standard residues stand in square brackets, D forms with d. Residues, ends and D or L forms follow the SMILES beside them. Groups on a side chain read outwards from the residue. *: point of attachment. C20 diacid = O=C(O)CCCCCCCCCCCCCCCCCCC(=O)*; γGlu = O=C(O)[C@H](CCC(=O)[*:2])N[*:1]; NMeY = CN[C@@H](Cc1ccc(O)cc1)C(=O)O

Sequence of human Y4 receptor (P50391 whole entry): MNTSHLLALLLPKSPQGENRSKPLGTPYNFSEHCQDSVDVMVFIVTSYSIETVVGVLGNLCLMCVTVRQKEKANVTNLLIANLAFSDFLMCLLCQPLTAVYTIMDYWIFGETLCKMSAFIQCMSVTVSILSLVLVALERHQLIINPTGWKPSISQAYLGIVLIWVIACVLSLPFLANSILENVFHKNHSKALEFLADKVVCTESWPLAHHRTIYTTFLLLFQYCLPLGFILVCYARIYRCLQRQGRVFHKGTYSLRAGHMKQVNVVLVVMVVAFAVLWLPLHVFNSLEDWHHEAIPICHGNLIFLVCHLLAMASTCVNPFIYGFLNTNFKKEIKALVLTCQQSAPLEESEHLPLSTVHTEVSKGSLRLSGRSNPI

With `CC(C)C[C@H](NC(=O)[C@H](CC(=O)O)NC(=O)[C@H](C)NC(=O)[C@H](Cc1ccc(O)cc1)NC(=O)[C@H](Cc1ccc(O)cc1)NC(=O)[C@H](CCCNC(=N)N)NC(=O)[C@H](CC(N)=O)NC(=O)[C@H](Cc1c[nH]c2ccccc12)NC(=O)[C@H](CCC(=O)O)NC(=O)[C@H](CCC(=O)O)NC(=O)[C@@H]1CCCN1C(=O)[C@H](CO)NC(=O)[C@H](C)NC(=O)[C@H](CC(=O)O)NC(=O)[C@H](CCCCN)NC(=O)CNC(=O)[C@@H]1CCCN1C(=O)[C@H](C)NC(=O)[C@H](CCC(=O)O)NC(=O)[C@@H]1CCCN1C(=O)[C@H](CCCCN)NC(=O)[C@@H]1CCCN1)C(=O)N[C@@H](CCCNC(=N)N)C(=O)N[C@@H](Cc1c[nH]cn1)C(=O)N[C@@H](Cc1ccc(O)cc1)C(=O)N[C@@H](CC(C)C)C(=O)N[C@@H](CCCCNC(=O)CC[C@H](NC(=O)CC[C@H](NC(=O)CCCCCCCCCCCCCCCCCCC(=O)O)C(=O)O)C(=O)O)C(=O)N[C@@H](Cc1c[nH]c2ccccc12)C(=O)N[C@@H](CC(C)C)C(=O)N[C@H](C(=O)N[C@@H](CCCNC(=N)N)C(=O)N[C@@H](CCC(N)=O)C(=O)N[C@@H](CCCNC(=N)N)C(=O)N[C@@H](Cc1ccccc1)C(N)=O)[C@@H](C)O` [Compound A51], the “NPY4R pEC50” value in experiment [1] is “inactive”. With `CC(C)C[C@H](NC(=O)[C@H](Cc1ccc(O)cc1)NC(=O)[C@H](Cc1c[nH]cn1)NC(=O)[C@H](CCCNC(=N)N)NC(=O)[C@H](C)NC(=O)[C@H](CC(=O)O)NC(=O)[C@H](C)NC(=O)[C@H](Cc1ccc(O)cc1)NC(=O)[C@H](Cc1ccc(O)cc1)NC(=O)[C@H](CCCNC(=N)N)NC(=O)[C@H](CCCCNC(=O)CC[C@H](NC(=O)CC[C@H](NC(=O)CCCCCCCCCCCCCCCCCCC(=O)O)C(=O)O)C(=O)O)NC(=O)[C@H](Cc1c[nH]c2ccccc12)NC(=O)[C@H](CCC(=O)O)NC(=O)[C@H](CCC(=O)O)NC(=O)[C@@H]1CCCN1C(=O)[C@H](CO)NC(=O)[C@H](C)NC(=O)[C@H](CC(=O)O)NC(=O)[C@H](CCCCN)NC(=O)CNC(=O)[C@@H]1CCCN1C(=O)[C@H](C)NC(=O)[C@H](CCC(=O)O)NC(=O)[C@@H]1CCCN1C(=O)[C@H](CCCCN)NC(=O)[C@@H]1CCCN1)C(=O)N[C@@H](CC(N)=O)C(=O)N[C@@H](Cc1c[nH]c2ccccc12)C(=O)N[C@@H](CC(C)C)C(=O)N[C@H](C(=O)N[C@@H](CCCNC(=N)N)C(=O)N[C@@H](CCC(N)=O)C(=O)N[C@@H](CCCNC(=N)N)C(=O)N(C)[C@@H](Cc1ccc(O)cc1)C(N)=O)[C@@H](C)O` [Compound A9], the EC50 in experiment [2] was 0.251 nM. The “NPY4R pEC50” value in experiment [1] is “inactive”.

`CC(C)C[C@H](NC(=O)[C@H](Cc1ccc(O)cc1)NC(=O)[C@H](Cc1c[nH]cn1)NC(=O)[C@H](CCCNC(=N)N)NC(=O)[C@H](C)NC(=O)[C@H](CC(=O)O)NC(=O)[C@H](C)NC(=O)[C@H](Cc1ccc(O)cc1)NC(=O)[C@H](Cc1ccc(O)cc1)NC(=O)[C@H](CCCNC(=N)N)NC(=O)[C@H](CC(N)=O)NC(=O)[C@H](CC(C)C)NC(=O)[C@H](CCC(=O)O)NC(=O)[C@H](CCC(=O)O)NC(=O)[C@@H]1CCCN1C(=O)[C@H](CO)NC(=O)[C@H](C)NC(=O)[C@H](CC(=O)O)NC(=O)[C@H](CCCCN)NC(=O)[C@H](CCCCNC(=O)CC[C@H](NC(=O)CC[C@H](NC(=O)CCCCCCCCCCCCCCCCCCC(=O)O)C(=O)O)C(=O)O)NC(=O)[C@@H]1CCCN1C(=O)[C@H](C)NC(=O)[C@H](CCC(=O)O)NC(=O)[C@@H]1CCCN1C(=O)[C@H](CCCCN)NC(=O)[C@@H]1CCCN1)C(=O)N[C@@H](CC(N)=O)C(=O)N[C@@H](Cc1c[nH]c2ccccc12)C(=O)N[C@@H](CC(C)C)C(=O)N[C@H](C(=O)N[C@@H](CCCNC(=N)N)C(=O)N[C@@H](CCC(N)=O)C(=O)N[C@@H](CCCNC(=N)N)C(=O)N(C)[C@@H](Cc1ccc(O)cc1)C(N)=O)[C@@H](C)O` [Compound A63] (H-PKPEAPK([γGlu-γGlu-C20 diacid])KDASPEELNRYYADARHYLNWLTRQR[NMeY]-NH2; N-terminus assumed) gave an EC50 in experiment [2] of 31.6 nM. Besides, the “NPY4R pEC50” value in experiment [1] was “inactive”. With `CC(C)C[C@H](NC(=O)[C@H](CC(=O)O)NC(=O)[C@H](C)NC(=O)[C@H](Cc1ccc(O)cc1)NC(=O)[C@H](Cc1ccc(O)cc1)NC(=O)[C@H](CCCNC(=N)N)NC(=O)[C@H](CC(N)=O)NC(=O)[C@H](Cc1c[nH]c2ccccc12)NC(=O)[C@H](CCC(=O)O)NC(=O)[C@H](CCC(=O)O)NC(=O)[C@@H]1CCCN1C(=O)[C@H](CO)NC(=O)[C@H](C)NC(=O)[C@H](CC(=O)O)NC(=O)[C@H](CCCCN)NC(=O)CNC(=O)[C@@H]1CCCN1C(=O)[C@H](C)NC(=O)[C@H](CCC(=O)O)NC(=O)[C@@H]1CCCN1C(=O)[C@H](CCCCN)NC(=O)[C@@H]1CCCN1)C(=O)N[C@@H](CCCNC(=N)N)C(=O)N[C@@H](Cc1c[nH]cn1)C(=O)N[C@@H](Cc1ccc(O)cc1)C(=O)N[C@@H](CC(C)C)C(=O)N[C@@H](CC(N)=O)C(=O)N[C@@H](Cc1c[nH]c2ccccc12)C(=O)N[C@@H](CC(C)C)C(=O)N[C@H](C(=O)N[C@@H](CCCNC(=N)N)C(=O)N[C@@H](CCCCNC(=O)CC[C@H](NC(=O)CC[C@H](NC(=O)CCCCCCCCCCCCCCCCCCC(=O)O)C(=O)O)C(=O)O)C(=O)N[C@@H](CCCNC(=N)N)C(=O)N[C@@H](Cc1ccccc1)C(N)=O)[C@@H](C)O` [Compound A50], in experiment [1], the “NPY4R pEC50” value was “inactive”. In the case of `CC(C)C[C@H](NC(=O)[C@H](CC(=O)O)NC(=O)[C@H](CCCCN)NC(=O)[C@H](Cc1ccc(O)cc1)NC(=O)[C@H](Cc1ccc(O)cc1)NC(=O)[C@H](CCCNC(=N)N)NC(=O)[C@H](CC(N)=O)NC(=O)[C@H](Cc1c[nH]c2ccccc12)NC(=O)[C@H](CCC(=O)O)NC(=O)[C@H](CCCCN)NC(=O)[C@@H]1CCCN1C(=O)[C@H](CO)NC(=O)[C@H](C)NC(=O)[C@H](CC(=O)O)NC(=O)[C@H](CCCCN)NC(=O)CNC(=O)[C@@H]1CCCN1C(=O)[C@H](CCCCNC(=O)CC[C@H](NC(=O)CC[C@H](NC(=O)CCCCCCCCCCCCCCCCCCC(=O)O)C(=O)O)C(=O)O)NC(=O)[C@H](CCC(=O)O)NC(=O)[C@@H]1CCCN1C(=O)[C@H](CCCCN)NC(=O)[C@@H]1CCCN1)C(=O)N[C@@H](CCCNC(=N)N)C(=O)N[C@@H](Cc1c[nH]cn1)C(=O)N[C@@H](Cc1ccc(O)cc1)C(=O)N[C@@H](CC(C)C)C(=O)N[C@@H](CC(N)=O)C(=O)N[C@@H](Cc1c[nH]c2ccccc12)C(=O)N[C@@H](CC(C)C)C(=O)N[C@H](C(=O)N[C@@H](CCCNC(=N)N)C(=O)N[C@@H](CCC(N)=O)C(=O)N[C@@H](CCCNC(=N)N)C(=O)N[C@@H](Cc1ccccc1)C(N)=O)[C@@H](C)O` [Compound A71] (H-PKPEK([γGlu-γGlu-C20 diacid])PGKDASPKEWNRYYKDLRHYLNWLTRQRF-NH2; N-terminus assumed), the EC50 is 0.02 nM in experiment [2] and 1.58 nM in experiment [3].
